GI50 and TGI data for 6 compounds are collected here from PubChem BioAssay (NCI).

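Dose response: 5 concentrations. Exposure: 48 h. Format: 96-well plates. Endpoint: linear interpolation; highest concentration if not reached. Here, GI50 denotes the concentration required for 50% inhibition of growth. At the TGI there is no net growth.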

Test systems include RXF 393 renal; M14 melanoma; PC-3 prostate; NCI-H226 lung; CAKI-1 renal; HCC-2998 colon; HL-60(TB) leukemia; A549 NSCLC; SK-MEL-2 melanoma; SNB-19 CNS.
Common to all, as to assay: growth of human tumour cells (NCI), 48 h

For `CC(=O)N[C@@H](Cc1ccc(OP(=O)(O)O)cc1)C(=O)N[C@H]1CCC(=O)N2CCC[C@@H](C(=O)NCc3ccc(O)cc3)N2C1=O`, the GI50 with RXF 393 renal, with M14 melanoma, in the experiment with PC-3 prostate, with NCI-H226 lung, with CAKI-1 renal and in the experiment with HCC-2998 colon was above 25 µM throughout. Besides, the GI50 with HL-60(TB) leukemia, in the experiment with A549 NSCLC, with SK-MEL-2 melanoma and in the experiment on SNB-19 CNS was above 25 µM in each case. Besides, the TGI in the experiment with RXF 393 renal, in the experiment on M14 melanoma, in the experiment with PC-3 prostate, in the experiment on NCI-H226 lung, with CAKI-1 renal and in the experiment with HCC-2998 colon was above 25 µM in each case. Besides, the TGI with HL-60(TB) leukemia, with A549 NSCLC, in the experiment with SK-MEL-2 melanoma and in the experiment with SNB-19 CNS was above 25 µM in each case.
On to `O=[N+]([O-])c1ccc(-c2ccccc2)c([As](=O)(O)O)c1`, for which the GI50 was 10.7 µM with RXF 393 renal; 26.6 µM in the experiment with M14 melanoma; 16.1 µM in the experiment on PC-3 prostate; 18.5 µM in the experiment on NCI-H226 lung; 13.2 µM with CAKI-1 renal; 19.4 µM in the experiment with HCC-2998 colon. Also, the GI50 with HL-60(TB) leukemia is 43.5 µM; in the experiment on A549 NSCLC, 27.2 µM; in the experiment with SK-MEL-2 melanoma, 28.2 µM; in the experiment with SNB-19 CNS, 18.7 µM. For the same compound, the TGI in the experiment with RXF 393 renal was 23.2 µM; in the experiment on M14 melanoma it was above 100 µM; in the experiment with PC-3 prostate it was above 100 µM; with NCI-H226 lung, 69.4 µM; in the experiment with CAKI-1 renal it was 98.1 µM; in the experiment on HCC-2998 colon, 45.5 µM. The TGI is above 100 µM with HL-60(TB) leukemia, above 100 µM in the experiment with A549 NSCLC, 62.8 µM in the experiment on SK-MEL-2 melanoma and above 100 µM in the experiment on SNB-19 CNS.
On to `CN(C)CCOc1nc2ccccc2c2c1-c1ccc(Cl)cc1C2=O`, for which the GI50 in the experiment with RXF 393 renal was 1.07 µM; in the experiment with M14 melanoma, 1.12 µM; with PC-3 prostate, 1.34 µM; in the experiment on NCI-H226 lung, 0.735 µM; in the experiment on CAKI-1 renal, 0.499 µM; in the experiment with HCC-2998 colon, 0.97 µM. The GI50 in the experiment with HL-60(TB) leukemia was 0.933 µM; in the experiment on A549 NSCLC, 0.458 µM; in the experiment with SK-MEL-2 melanoma, 2.34 µM; in the experiment with SNB-19 CNS, 0.46 µM. Also, the TGI was 2.55 µM with RXF 393 renal; 2.72 µM in the experiment with M14 melanoma; 7.69 µM in the experiment on PC-3 prostate; 8.65 µM with NCI-H226 lung; 5.18 µM in the experiment with CAKI-1 renal; 2.49 µM in the experiment with HCC-2998 colon. Also, the TGI in the experiment on HL-60(TB) leukemia was 3.37 µM; in the experiment on A549 NSCLC it was 5.25 µM; in the experiment on SK-MEL-2 melanoma, 4.68 µM; in the experiment on SNB-19 CNS, 2.14 µM.
Turning to `COc1ccc(-c2cncn2-c2cc(OC)c(OC)c(OC)c2)cc1F`, the GI50 in the experiment with RXF 393 renal is below 0.0278 µM; with M14 melanoma, below 0.01 µM; with PC-3 prostate, 0.0179 µM; in the experiment on NCI-H226 lung, 21.5 µM; with CAKI-1 renal it was below 0.0197 µM; in the experiment on HCC-2998 colon, 0.0101 µM. Besides, the GI50 with HL-60(TB) leukemia was 0.0103 µM; in the experiment with A549 NSCLC, below 0.0348 µM; in the experiment on SK-MEL-2 melanoma, below 0.0172 µM; in the experiment with SNB-19 CNS, below 0.0146 µM. Further, the TGI with M14 melanoma is 0.141 µM; in the experiment on PC-3 prostate, above 100 µM; in the experiment with NCI-H226 lung it was above 100 µM; in the experiment with CAKI-1 renal, above 24.4 µM; with HCC-2998 colon, 13.4 µM; in the experiment on HL-60(TB) leukemia, below 0.0288 µM. Besides, the TGI in the experiment on A549 NSCLC, in the experiment on SK-MEL-2 melanoma and with SNB-19 CNS was above 100 µM each time.
`N#CC[C@H](C1CCCC1)n1cc(-c2ncnc3[nH]ccc23)cn1`: the GI50 was 4.06 µM in the experiment on RXF 393 renal; 30.3 µM in the experiment with M14 melanoma; 35.2 µM in the experiment with PC-3 prostate; 9.28 µM in the experiment with NCI-H226 lung; 7.91 µM in the experiment with CAKI-1 renal; 20.6 µM with HCC-2998 colon. The GI50 was 22.7 µM with HL-60(TB) leukemia, 30.1 µM in the experiment on A549 NSCLC, 30.5 µM in the experiment on SK-MEL-2 melanoma and 35.2 µM in the experiment on SNB-19 CNS. The TGI was 27.2 µM in the experiment with RXF 393 renal; above 88.6 µM with M14 melanoma; above 100 µM with PC-3 prostate; above 92.5 µM with NCI-H226 lung; above 100 µM in the experiment with CAKI-1 renal; above 91.7 µM in the experiment on HCC-2998 colon. Moreover, the TGI in the experiment on HL-60(TB) leukemia is 60.6 µM; in the experiment on A549 NSCLC it was above 100 µM; in the experiment on SK-MEL-2 melanoma, 78.2 µM; in the experiment on SNB-19 CNS it was above 100 µM.
As to `CCOC(=O)C(Cc1ccc(OC)cc1)C(=O)OCC`, the GI50 in the experiment on RXF 393 renal is 2.61 µM; with M14 melanoma, 8.17 µM; in the experiment with PC-3 prostate, 5.08 µM; in the experiment on NCI-H226 lung, 12.4 µM; in the experiment with CAKI-1 renal, 4.67 µM; with HCC-2998 colon, 4.81 µM. The GI50 with HL-60(TB) leukemia was 2.26 µM; with A549 NSCLC, 7.01 µM; with SK-MEL-2 melanoma it was 2.64 µM; with SNB-19 CNS, 4.82 µM. Moreover, the TGI turned out to be 7.02 µM in the experiment on RXF 393 renal; 20.7 µM in the experiment with M14 melanoma; 32.4 µM with PC-3 prostate; 30.3 µM with NCI-H226 lung; 16.6 µM in the experiment with CAKI-1 renal; 12.4 µM in the experiment on HCC-2998 colon. Moreover, the TGI with HL-60(TB) leukemia was 8.39 µM; in the experiment with A549 NSCLC it was 33.7 µM; with SK-MEL-2 melanoma, 8.66 µM; with SNB-19 CNS, 17.4 µM.
